Results taken from US20140135310A1, “SULPHONAMIDE DERIVATIVES OF ALICYCLIC AMINES FOR THE TREATMENT OF CENTRAL NERVOUS SYSTEM DISEASES” (Adamed Sp. z o.o., priority 2011, published 2014).

Legend:
[1] = test system: dizocilpine-induced locomotor hyperactivity; assay: Dizocilpine (MK-801)-induced locomotor hyperactivity in mice; assay type: in vivo; conditions: reversal of dizocilpine (MK-801)-induced hyperlocomotion, male CD-1 mice, i.p., 30 minutes before the experiment
Procedure: Potential antipsychotic activity was tested for the representative compounds in mouse model of psychosis, involving the induction of locomotor hyperactivity by administering psychotomimetic substance—dizocilpine. The ability of a test compound to remove this effect is a measure of potential antipsychotic activity.
Male CD-1 mice were group-housed for 2-3 day period in polycarbonate Makrolon type 3 cages (dimensions 26.5×15×42 cm) in an environmentally controlled, experimental room (ambient temperature 22-20° C.; relative humidity 50-60%; 12:12 light:dark cycle, lights on at 8:00), in groups of 15. Standard laboratory food (Ssniff M-Z) and filtered water were freely available. On the day before experiments the equipment produced “white noise” was turned on for 30 minutes and mice were weighted exact to 1 g. Animals were assigned randomly to treatment groups. All the experiments were performed by two observers unaware of the treatment applied between 9:00 and 14:00 on separate groups of animals. Mice were used only once and were killed immediately after the experiment.
The locomotor activity was recorded with an Opto M3 multi-channel activity monitor (MuttiDevice Software v.1.3, Columbus Instruments). The mice were individually placed in plastic cages (22×12×13 cm) for 30 minutes habituation period, and then the crossings of each channel (ambulation) were counted during 1 h with data recording every 5 minutes. The cages were cleaned up with 70% ethanol after examining each mouse. Drugs were administered to 10 mice per treatment group. Test compounds were given 30 minutes before the experiment. Dizocilpine was administered 30 minutes before the test.
Test compounds were prepared as a suspension in 1% aqueous solution of Tween 80, and dizocilpine was dissolved in distilled water immediately before administration. An injection volume of 10 ml/kg was used and all compounds were administered intraperitoneally (i.p.).

[2] = target: T1, hERG potassium channels (KCNH2 gene, expressed in CHO cells) (Homo sapiens, UniProt Q12809); assay: Ability to block hERG potassium channel (electrophysiology, IonWorks Quattro); assay type: cell-based; conditions: % block of hERG current, test compound 1×10^−5 M
T1 construct: expressed in transfected cells; host or cells: CHO cells
Procedure: Moreover, the ability of the compounds of the invention to block potassium channel hERG was tested.
Ability to block hERG potassium channels was determined using the electrophysiological method and cloned hERG potassium channels (KCNH2 gene, expressed in CHO cells) as biological material. The effects were evaluated using IonWorks™ Quattro system (MDS-AT).
hERG current was elicited using a pulse pattern with fixed amplitudes (conditioning pre-pulse: −80 mV for 25 ms; test pulse: +40 mV for 80 ms) from a holding potential of 0 mV. hERG current was measured as a difference between the peak current at 1 ms after the test step to +40 mV and the steady-state current at the end of the step to +40 mV.
Data acquisition and analyses was performed using the IonWorks Quattro™ system operation software (version 2.0.2; Molecular Devices Corporation, Union City, Calif.). Data were corrected for leak current.
The hERG block was calculated as:
% Block=(1−ITA/IControl)×100%,
where IControl and ITA were the currents elicited by the test pulse in control and in the presence of a test article, respectively.
Concentration-response data for the blocks were fit to an equation of the following form:
% Block=% VC+{(% PC−% VC)−(% PC−% VC)/[1+([Test]/IC50)N]},

[3] = target: T2, 5-HT reuptake (rat brain synaptosomes) (Rattus norvegicus, UniProt P31652); assay: 5-HT reuptake, [3H]5-HT incorporation into rat brain synaptosomes; assay type: biochemical; conditions: 15 min/37° C., read-out: SERT IC50
T2 construct: measuring [^3H]5-HT incorporation into rat brain synaptosomes; from tissue; host or cells: rat brain synaptosomes
Procedure: 5-HT reuptake was tested according to Perovic, S. and Muller, W.E.G. (1995) Arzneim-Forsch. Drug Res., 45: 1145-1148 by measuring [^3H]5-HT incorporation into rat brain synaptosomes. Assay conditions are as follows:
Tracer: [^3H]5-HT (0.2 μCi/ml)
Incubation: 15 min/37° C.

T1 sequence (Q12809 whole entry): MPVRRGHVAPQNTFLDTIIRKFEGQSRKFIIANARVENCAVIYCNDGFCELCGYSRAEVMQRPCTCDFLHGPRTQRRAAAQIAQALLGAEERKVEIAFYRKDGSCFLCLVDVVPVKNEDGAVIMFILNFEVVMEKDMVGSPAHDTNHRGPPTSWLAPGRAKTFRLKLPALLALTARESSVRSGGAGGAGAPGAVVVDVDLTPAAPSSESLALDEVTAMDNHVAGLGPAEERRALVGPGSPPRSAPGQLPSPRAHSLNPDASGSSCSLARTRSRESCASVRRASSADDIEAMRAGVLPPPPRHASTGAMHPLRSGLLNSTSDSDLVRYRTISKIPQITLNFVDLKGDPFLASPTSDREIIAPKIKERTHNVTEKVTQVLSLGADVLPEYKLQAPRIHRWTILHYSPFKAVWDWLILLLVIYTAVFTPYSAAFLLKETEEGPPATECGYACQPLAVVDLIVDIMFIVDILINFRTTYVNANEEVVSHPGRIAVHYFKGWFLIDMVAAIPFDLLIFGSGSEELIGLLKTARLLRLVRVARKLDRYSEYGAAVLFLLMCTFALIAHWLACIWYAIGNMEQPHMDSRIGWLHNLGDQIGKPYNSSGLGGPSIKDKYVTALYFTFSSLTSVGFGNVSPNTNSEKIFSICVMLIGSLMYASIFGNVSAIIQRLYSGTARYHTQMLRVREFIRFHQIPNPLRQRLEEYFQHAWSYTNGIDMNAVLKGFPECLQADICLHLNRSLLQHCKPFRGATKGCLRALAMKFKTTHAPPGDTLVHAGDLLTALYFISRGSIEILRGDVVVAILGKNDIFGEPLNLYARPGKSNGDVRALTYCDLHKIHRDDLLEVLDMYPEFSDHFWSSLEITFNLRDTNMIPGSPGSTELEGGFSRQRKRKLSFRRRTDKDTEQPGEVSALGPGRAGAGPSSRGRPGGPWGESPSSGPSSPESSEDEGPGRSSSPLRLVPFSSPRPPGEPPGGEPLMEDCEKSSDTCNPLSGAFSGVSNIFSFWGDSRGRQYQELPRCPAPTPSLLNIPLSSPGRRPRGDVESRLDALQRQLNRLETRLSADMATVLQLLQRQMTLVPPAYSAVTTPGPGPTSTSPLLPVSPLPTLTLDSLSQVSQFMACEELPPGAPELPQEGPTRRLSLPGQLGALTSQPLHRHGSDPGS
T2 sequence (P31652 whole entry): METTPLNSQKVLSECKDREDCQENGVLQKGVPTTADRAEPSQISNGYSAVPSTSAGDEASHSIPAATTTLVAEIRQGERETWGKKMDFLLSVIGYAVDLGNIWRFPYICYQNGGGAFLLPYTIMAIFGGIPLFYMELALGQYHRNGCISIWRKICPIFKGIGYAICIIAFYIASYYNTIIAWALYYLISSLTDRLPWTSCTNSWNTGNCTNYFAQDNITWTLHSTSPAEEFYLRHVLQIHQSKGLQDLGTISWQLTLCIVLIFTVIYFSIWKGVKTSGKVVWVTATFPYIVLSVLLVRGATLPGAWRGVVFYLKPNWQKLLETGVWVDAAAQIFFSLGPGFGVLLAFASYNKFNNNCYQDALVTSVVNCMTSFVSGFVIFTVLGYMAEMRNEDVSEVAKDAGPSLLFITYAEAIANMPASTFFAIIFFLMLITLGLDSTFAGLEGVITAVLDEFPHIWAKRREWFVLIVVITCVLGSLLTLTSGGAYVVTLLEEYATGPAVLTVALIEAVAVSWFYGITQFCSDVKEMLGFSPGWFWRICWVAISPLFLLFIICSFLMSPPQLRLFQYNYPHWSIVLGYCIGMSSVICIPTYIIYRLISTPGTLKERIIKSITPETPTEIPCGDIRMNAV

Row | SMILES | MED* [mg/kg] (minimum effective dose) [1] | hERG [%] [2] | IC50 [3]
1 | O=S(=O)(NC1CCN(CCCc2noc3cc(F)ccc23)C1)c1ccc2ccccc2c1 (stereo not shown) [Compound 21, N-[1-[3-(6-Fluoro-1,2-benzoxazol-3-yl)propyl]pyrrolidin-3-yl]naphthalene-2-sulphonamide] | 10 mg/kg | 3.3% | –
2 | O=S(=O)(NC1CCN(CCCc2c[nH]c3ccc(F)cc23)C1)c1ccc2ccccc2c1 (stereo not shown) [Compound 80, N-[1-[3-(5-Fluoro-1H-indol-3-yl)propyl]pyrrolidin-3-yl]naphthalene-2-sulphonamide] | – | – | 2.1 nM
3 | O=S(=O)(N[C@@H]1CCN(CCCc2noc3cc(F)ccc23)C1)c1cc2ccccc2s1 [Compound 196, N-[(3R)-1-[3-(6-Fluoro-1,2-benzoxazol-3-yl)propyl]pyrrolidin-3-yl]benzo-thiophene-2-sulphonamide] | 2.5 mg/kg | – | –
4 | O=S(=O)(NC1CCN(CCCc2c[nH]c3ccc(Cl)cc23)C1)c1cccc(Cl)c1 (stereo not shown) [Compound 84, 3-Chloro-N-[1-[3-(5-chloro-1H-indol-3-yl)propyl]pyrrolidin-3-yl]benzenesulphonamide] | – | – | 64 nM
5 | O=S(=O)(NC1CCN(CCCc2noc3cc(F)ccc23)CC1)c1cccc2ccccc12 [Compound 34, N-[1-[3-(6-Fluoro-1,2-benzoxazol-3-yl)propyl]-4-piperidine]-naphthalene-1-sulphonamide] | – | −1.1% | –
6 | O=S(=O)(NC1CCN(CCCc2noc3cc(F)ccc23)C1)c1csc2ccccc12 (stereo not shown) [Compound 26, N-[1-[3-(6-Fluoro-1,2-benzoxazol-3-yl)propyl]pyrrolidin-3-yl]-benzothiophene-3-sulphonamide] | – | 6.1% | –
7 | O=S(=O)(NC1CN(CCOc2cccc3c2OCCO3)C1)c1cccc2ccccc12 [Compound 94, N-[1-[2-(2,3-Dihydro-1,4-benzodioxan-8-yloxy)ethyl]azetidin-3-yl]-naphthalene-1-sulphonamide] | – | 4.8% | –
8 | O=S(=O)(NC1CCN(CCCc2noc3cc(F)ccc23)C1)c1cc2ccccc2s1 (stereo not shown) [Compound 25, N-[1-[3-(6-Fluoro-1,2-benzoxazol-3-yl)propyl]pyrrolidin-3-yl]-benzothiophene-2-sulphonamide] | 5 mg/kg | 2.9% | –
